#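 Cultured in 96-well plates, cells were exposed to test compound for 48 hours across five concentrations. TGI: total growth inhibition.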
# Columns and labels:
# Experiment in all cases: inhibition of tumour cell growth, NCI panel, 48 h
# SW-620 colon = tested on: SW-620 colon
# HOP-62 NSCLC = tested on: HOP-62 NSCLC
# MDA-MB-435 = tested on: MDA-MB-435
# MDA-N = tested on: MDA-N
# MOLT-4 leukemia = tested on: MOLT-4 leukemia
# TK-10 renal = tested on: TK-10 renal
# IGROV1 ovarian = tested on: IGROV1 ovarian
# SNB-19 CNS = tested on: SNB-19 CNS
# SF-268 CNS = tested on: SF-268 CNS
# M14 melanoma = tested on: M14 melanoma
# A549 NSCLC = tested on: A549 NSCLC
# RXF 393 renal = tested on: RXF 393 renal
SMILES,TGI (SW-620 colon),TGI (HOP-62 NSCLC),TGI (MDA-MB-435),TGI (MDA-N),TGI (MOLT-4 leukemia),TGI (TK-10 renal),TGI (IGROV1 ovarian),TGI (SNB-19 CNS),TGI (SF-268 CNS),TGI (M14 melanoma),TGI (A549 NSCLC),TGI (RXF 393 renal)
O=c1c2cc([N+](=O)[O-])cnc2sn1-c1ccc(Oc2ccccc2)cc1,> 100 µM,> 100 µM,> 100 µM,> 100 µM,> 100 µM,> 100 µM,> 100 µM,> 100 µM,> 100 µM,> 100 µM,> 100 µM,
c1ccc2c(NCCCCCCCCNc3cccc4ccccc34)cccc2c1,40 µM,> 100 µM,,,39.9 µM,43.6 µM,> 100 µM,> 100 µM,> 100 µM,39.6 µM,> 100 µM,
CCC12CC[C@H](C#N)N3CCc4c(n(c5ccccc45)C(=O)C1)C32 (stereo partly specified),51.7 µM,49.2 µM,,,52 µM,46.8 µM,63.3 µM,,53.7 µM,44.9 µM,61.3 µM,29.6 µM
CSC1=N/C(=C\c2ccc(Cl)cc2)C(=O)N1CN1CCOCC1,> 100 µM,> 100 µM,> 100 µM,> 100 µM,> 100 µM,> 100 µM,> 100 µM,> 100 µM,> 100 µM,> 100 µM,> 100 µM,
Cc1nc2c(s/c(=N\N)n2-c2ccccc2)c(=O)[nH]1,> 100 µM,> 100 µM,,,> 100 µM,> 100 µM,> 100 µM,> 100 µM,> 100 µM,> 100 µM,> 100 µM,> 100 µM
BrC12C3C4C5C(C(C43)C13OCCO3)C52 (stereo unspecified),> 100 µM,> 100 µM,,,> 100 µM,> 100 µM,> 100 µM,> 100 µM,> 100 µM,,> 100 µM,> 100 µM
[N-]=[N+]=Nc1cc(=O)n(-c2ccccc2)c(=O)n1-c1ccccc1,> 100 µM,> 100 µM,> 100 µM,,> 100 µM,> 100 µM,> 100 µM,> 100 µM,> 100 µM,> 100 µM,> 100 µM,> 100 µM
COc1ccc2c(c1)CC1NC2Cc2ccccc21 (stereo unspecified),> 100 µM,> 100 µM,,,> 100 µM,> 100 µM,> 100 µM,,> 100 µM,> 100 µM,> 100 µM,
COc1c(C(=O)O)cccc1-c1cccc(C(=O)NCCN(CCNC(=O)c2cccc(-c3cccc(C(=O)O)c3OC)c2OC)CCNC(=O)c2cccc(-c3cccc(C(=O)O)c3OC)c2OC)c1OC,> 100 µM,> 100 µM,34.3 µM,23.8 µM,> 100 µM,> 100 µM,> 100 µM,> 100 µM,> 100 µM,,> 100 µM,> 100 µM
O=C(/C=C/c1c(O)c2ccccc2[nH]c1=O)CC(=O)C(=O)Nc1cccc(O)c1,> 100 µM,,> 100 µM,,> 100 µM,> 100 µM,> 100 µM,> 100 µM,> 100 µM,> 100 µM,> 100 µM,
CC1C(c2ccccc2)=CCON1c1ccccc1 (stereo unspecified),> 100 µM,> 100 µM,,,> 100 µM,,> 100 µM,> 100 µM,> 100 µM,> 100 µM,> 100 µM,> 100 µM
N=c1oc2cc(O)c(O)cc2cc1C(N)=O,> 100 µM,> 100 µM,,,> 100 µM,> 100 µM,> 100 µM,> 100 µM,> 100 µM,> 100 µM,> 100 µM,> 100 µM
c1cc2[se][se]c3c4cccc5[se][se]c(c(c1)c23)c54,> 100 µM,> 100 µM,,,> 100 µM,> 100 µM,> 100 µM,> 100 µM,> 100 µM,> 100 µM,> 100 µM,> 100 µM
O=C1OC(c2ccccc2)(c2ccccc2)CC1CN1CCOCC1 (stereo unspecified),18 µM,> 100 µM,,,65.4 µM,31.6 µM,> 100 µM,> 100 µM,84 µM,31.4 µM,24.5 µM,
CCOC(=O)C(NC(=O)NCc1ccc(F)cc1)C(F)(F)F (stereo unspecified),> 100 µM,,> 100 µM,> 100 µM,,> 100 µM,> 100 µM,> 100 µM,> 100 µM,> 100 µM,> 100 µM,> 100 µM
CC(C)(C)c1cc(N=NC(=S)NCc2ccccc2)cc(C(C)(C)C)c1O,> 100 µM,> 100 µM,,,> 100 µM,> 100 µM,> 100 µM,> 100 µM,> 100 µM,> 100 µM,> 100 µM,> 100 µM
CCCN(CCC)C(=S)N/N=C/c1cccc(C)n1,> 100 µM,,28.8 µM,22.6 µM,0.588 µM,0.832 µM,1.56 µM,> 100 µM,15.1 µM,1.01 µM,10.3 µM,0.637 µM
CC1=C(C#N)C(=O)N(/N=C/c2ccc(Cl)cc2)C(=O)/C1=c1\o/c(=C2/C(=O)N(/N=C/c3ccc(Cl)cc3)C(=O)C(C#N)=C2C)c2nccnc12,> 100 µM,,> 100 µM,> 100 µM,> 100 µM,,> 100 µM,> 100 µM,> 100 µM,> 100 µM,> 100 µM,> 100 µM
CC[N+](CC)(CC)Cc1cn(S(=O)(=O)c2ccccc2)c2ccccc12,> 100 µM,> 100 µM,,,> 100 µM,> 100 µM,> 100 µM,> 100 µM,> 100 µM,> 100 µM,> 100 µM,
O=S(=O)([N-]c1nc2ccccc2nc1-[n+]1ccccc1)c1ccccc1,,> 100 µM,,,95.4 µM,> 100 µM,> 100 µM,> 100 µM,> 100 µM,> 100 µM,> 100 µM,> 100 µM
NC(=O)CC1(O)C=CC(=O)C=C1,> 100 µM,> 100 µM,> 100 µM,> 100 µM,> 100 µM,> 100 µM,> 100 µM,> 100 µM,,> 100 µM,> 100 µM,> 100 µM
Cc1nc(Nc2ccccc2)sc1C(=O)NNC(N)=O,> 100 µM,> 100 µM,,,> 100 µM,> 100 µM,> 100 µM,> 100 µM,> 100 µM,> 100 µM,> 100 µM,> 100 µM

# Source: PubChem BioAssay (NCI)
